Read-outs that look alike come from different tables or passages of the source.
How the values were obtained:
R and S Kochia biotypes = assay: Greenhouse spray test for cross-resistance of Kochia R-biotype; type: in vivo, Kochia scoparia; conditions: all treatments, track sprayer, 10 to 15 cm tall plants
Description: To elucidate whether the Kochia R-biotype is cross resistant to 2,4-D or fluroxypyr, greenhouse grown 10 to 15 cm tall Kochia plants were sprayed with either Dicamba at 0,140, 280, 560, 2240, 4480, 6720, 8960, or 17920 g a.e.ha^−1; 2,4-D at 0, 70, 140, 280, 560, 1120, 2240, 4480, 6720, 8960 g a.e.ha^−1 or fluroxypyr at 0, 17.5, 35, 70, 140, 280, 420, 560, 1120, 2240 g a.e.ha^−1 with a track sprayer. […]

[1] = test system: KsIAA16S in combination with KsTIR1; assay: Yeast two-hybrid (Y2H) assay: KsIAA16S binding with KsTIR1 in presence of auxin; set-up: species or system Kochia scoparia; conditions: allele KsIAA16S, yeast colony growth
Description: (§1) Yeast two-hybrid (Y2H) studies were conducted using the Matchmaker® Gold Yeast Two-Hybrid System: vectors, transformation protocols and yeast strains (Clonetech Laboratories, Inc.). The coding sequences for the KsIAA16R (SEQ ID NO: 220), KsIAA16S (SEQ ID NO: 218), KsTIR1 (SEQ ID NO: 285), KsAFB6 (SEQ ID NO: 287), KsAFB2 (SEQ ID NO: 289), and KsAFB5 (SEQ ID NO: 291) were PCR amplified using primers specified in Table 2.
(§2) PCR products were gel purified and recombined into NdeI/NotI digested pGADT7 or pGBKT7 vectors using the In-Fusion® cloning system (Clonetech Laboratories, Inc.). The pGBKT7 vector contained the GAL4 DNA binding domain, rendering the fusions as the “bait,” whereas the “prey” were the fusions containing the pGADT7 vector, which contained the GAL4 activation domain. All vectors were first sequence verified and then the listed vector combinations were co-transformed into the yeast strain, Y2HGold. […] Transformants were plated on SC-Trp-Leu plates to select for those containing both plasmids. Four healthy colonies were selected at random and resuspended into 300 μL of 0.1% agar in water. Five μL of this dilution was replica spotted onto each plate. Plates were incubated at 30° C. for 3 days prior to evaluation of colony growth. […]

[2] = test system: seedlings of the R and S Kochia biotypes; assay: Root elongation response of Kochia seedlings; type: in vivo, Kochia scoparia; conditions: R biotype seedlings; FIG. 5
Description: The root elongation response of seedlings from the R and S Kochia biotypes was tested to determine if the R biotype response was consistent with the Y2H findings. For root elongation studies, plant nutrient media was used, with 0.5% sucrose. Seeds were surface sterilized in 30% bleach with 0.1% Triton-X100 for 10 to 30 minutes, then rinsed twice in sterile water and resuspended in 0.1% agar for plating. Root lengths were measured to the nearest millimeter, and the average root length of 12 individuals was calculated unless otherwise noted.

[3] = test system: dicamba resistant Kochia biotype
[4] = test system: Kochia F2 progeny (S/S, R/S, R/R); conditions: spray 1120 g/ha
Description: To determine whether the KsIAA16R allele co-segregates with the dicamba resistance phenotype, spray tests were performed on Kochia populations comprising S and R plants. Crosses between S and R individuals were performed, utilizing the S biotype as the female and the R biotype as the male in order to identify individuals resulting from cross pollination. […] Several verified heterozygous F1 plants were selected for F2 seed production. In addition, a subset of S/S and R/S individuals from the F1 generation was subjected to dicamba sprays to ensure that the marker could effectively identify the R allele.
To determine whether the KsIAA16R allele co-segregates with the dicamba resistance phenotype, 720 F2 progeny from verified heterozygous F1 parental plants were sampled and genotyped, and tolerance to a dicamba spray concentration double the typical dicamba field use rate (1120 g/ha) was determined. Plant identity was maintained throughout the experiment, and genotype and percent visible dicamba injury was determined for each of the F2 progeny.

[5] = test system: KsIAA16 (R and S alleles) with KsTIR1 and/or KsAFB6; assay: Y2H assay, summary statements over the protein combinations tested; type: binding, Kochia scoparia; conditions: at the concentrations tested
Description: as §1
PCR products were gel purified and recombined into NdeI/NotI digested pGADT7 or pGBKT7 vectors using the In-Fusion® cloning system (Clonetech Laboratories, Inc.). The pGBKT7 vector contained the GAL4 DNA binding domain, rendering the fusions as the “bait,” whereas the “prey” were the fusions containing the pGADT7 vector, which contained the GAL4 activation domain. All vectors were first sequence verified and then the listed vector combinations were co-transformed into the yeast strain, Y2HGold. […] Transformants were plated on SC-Trp-Leu plates to select for those containing both plasmids. Four healthy colonies were selected at random and resuspended into 300 μL of 0.1% agar in water. Five μL of this dilution was replica spotted onto each plate. Plates were incubated at 30° C. for 3 days prior to evaluation of colony growth.
This method enabled the study of the binding/interaction of the Kochia R and S alleles of KsIAA16 with each of the Kochia TIR/AFB homologs (KsTIR1 (SEQ ID NO: 285), and KsAFB6 (SEQ ID NO: 287)) in the absence or presence of 100 μM or 500 μM exogenous concentrations of IAA, NAA, dicamba, and 2,4-D, picloram, triclopyr, quinclorac, fluroxypyr or phenylacetic acid (PAA).

[6] = test system: transgenic Arabidopsis carrying AtIAA16P:KsIAA16 constructs; assay: Root elongation inhibition assay of T2 transgenic Arabidopsis on plant nutrient plus IAA or dicamba; type: in vivo, Arabidopsis thaliana
Description: To determine if the presence of the KsIAA16R allele alone was necessary and sufficient to confer dicamba resistance, several transgene expression constructs were generated for study of KsIAA16 in Arabidopsis. Agrobacterium tumefaciens was used to introduce the binary vectors in the plants using the floral dip method (Clough and Bent, 1998). Vectors contained either the ethanol inducible alcA promoter elements (Salter et al., 1998), the constitutive CaMV35S promoter, or the native Arabidopsis IAA16 promoter (AtIAA16P) driving either KsIAA16R (SEQ ID NO: 220) or KsIAA16S (SEQ ID NO: 218). GUS reporter constructs contained a 2.5 kb genomic DNA fragment from directly upstream of KsIAA16, which is expected to contain most of the promoter elements as well as the 5′UTR, driving uidA. All constructs contained either a Spectinomycin resistance gene (SPEC) or a glufosinate resistance gene (BAR) in the T-DNA region to serve as the selectable marker. For all constructs, T1 seed was harvested, surface sterilized, and plated on the appropriate selective media to identify independent T1 transformants. Single seed decent and segregation on selective media was used to estimate transgene insertion number and identify homozygous lines. For induction of the P-Alc promoter, ethanol was added to a final concentration of 0.01% just before plates were poured, and plates were used immediately. All plates were grown in a Percival growth chamber (Percival Scientific, Inc.) at 22° C. with 16 hour day/8 hour night light cycle and a light intensity of […]. Relative humidity was maintained at 50%. GUS assays were performed according to standard protocols. Briefly, a 20 mg/mL X-Gluc (GoldBio, St. Louis, Mo.) stock in dimethylformamide was diluted into 50 mM phosphate buffer, pH 7.0, to a final concentration of 1 mg/mL. This solution was added to plant tissues, and samples were placed under vacuum for 5 minutes to ensure penetration of the solution into the tissues. Samples were covered in foil to prevent light entry and place at 37° C. for 24 hours to allow color development. Staining solution was removed and chlorophyll was cleared by incubating samples in 50% ethanol for several hours.

[7] = test system: KsIAA16R in combination with KsTIR1; assay: Yeast two-hybrid (Y2H) assay: KsIAA16R binding with KsTIR1 in presence of auxin; set-up: species or system Kochia scoparia; conditions: compared with KsIAA16S; concentration not given
Description: as §1, §2

With COc1c(Cl)ccc(Cl)c1C(=O)O [Dicamba, 3,6-dichloro-2-methoxybenzoic acid] the “Visible injury at 14 days after treatment (DAT)” value (R and S Kochia biotypes) was “observed”, the “Ability to bind in combination with KsTIR1” value ([1]; auxin [100 mM] (text: 100 μM)) was “exhibited interaction” and the “Ability to bind in combination with KsTIR1” value ([1]; auxin [500 mM] (text: 500 μM)) was “exhibited interaction”. For the same compound, the “Root elongation inhibition of the R Kochia biotype” value [2] was “resistant”, the “fold increase in dicamba resistance” value [3] was about 30 fold and the mean injury rating ([4]; R/R individuals) was 24.6%. For the same compound, the mean injury rating ([4]; R/S individuals) was 35.9%, the mean injury rating ([4]; S/S individuals) was 82.3% and the “average injury per genotype (percent visible dicamba injury)” value ([4]; genotype R/R) was “about 20%”. For the same compound, the “average injury per genotype (percent visible dicamba injury)” value ([4]; genotype R/S) was “about 40%”, the “average injury per genotype (percent visible dicamba injury)” value ([4]; genotype S/S) was “about 80%” and the “Facilitation of interaction of KsIAA16R with KsTIR1 and/or KsAFB6” value [5] was “cannot”. The “Resistance in root elongation inhibition assay” value ([6]; four independent transformant lines carrying AtIAA16P:KsIAA16R) was “showed resistance”, the “Root Length (in mm) of T2 transgenics on plant nutrient plus auxin” value (shortened to “Root Length (in mm) of T2 transgenics”) ([6]; line AtIAA16P:KsIAA16R_T2-1, +5 μM auxin) was 12.42 ± 1.27 mm and the “Root Length (in mm) of T2 transgenics” value ([6]; line AtIAA16P:KsIAA16R_T2-2, +5 μM auxin) was 15.5 ± 1.45 mm. For the same compound, the “Root Length (in mm) of T2 transgenics” value ([6]; line AtIAA16P:KsIAA16R_T2-3, +5 μM auxin) was 15.58 ± 1.57 mm, the “Root Length (in mm) of T2 transgenics” value ([6]; line AtIAA16P:KsIAA16R_T2-4, +5 μM auxin) was 17.5 ± 2.12 mm and the “Root Length (in mm) of T2 transgenics” value ([6]; line AtIAA16P:KsIAA16S_T2-1, +5 μM auxin) was 13.50 ± 1.01 mm. The “Root Length (in mm) of T2 transgenics” value ([6]; line AtIAA16P:KsIAA16S_T2-2, +5 μM auxin) was 11.42 ± 1.28 mm, the “Root Length (in mm) of T2 transgenics” value ([6]; line AtIAA16P:KsIAA16S_T2-3, +5 μM auxin) was 14.17 ± 0.9 mm and the “Root Length (in mm) of T2 transgenics” value ([6]; line AtIAA16P:KsIAA16S_T2-4, +5 μM auxin) was 10.67 ± 0.72 mm. The “Root Length (in mm) on plant nutrient plus auxin” value ([6]; non-transgenic WT, +5 μM auxin) was 9.08 ± 0.66 mm, the “Resistance in root elongation inhibition assay” value ([6]; only one of the four lines carrying AtIAA16P:KsIAA16S) was “very slight resistance” and the “Ability of KsIAA16R to interact with KsTIR1 in the presence of the auxin” value [7] was “decreased ability to interact”.
